In patent US7208515B2, “Diphenylmethyl compounds useful as muscarinic receptor antagonists” (Theravance, Inc., priority 2004, dated 2007):

Target: T1, hM2 receptor (CHO-K1 cells) (Homo sapiens, UniProt P08172)
T1 construct: expressed in transfected cells; host or cells: CHO-K1 cells
T1 sequence (P08172 1-466): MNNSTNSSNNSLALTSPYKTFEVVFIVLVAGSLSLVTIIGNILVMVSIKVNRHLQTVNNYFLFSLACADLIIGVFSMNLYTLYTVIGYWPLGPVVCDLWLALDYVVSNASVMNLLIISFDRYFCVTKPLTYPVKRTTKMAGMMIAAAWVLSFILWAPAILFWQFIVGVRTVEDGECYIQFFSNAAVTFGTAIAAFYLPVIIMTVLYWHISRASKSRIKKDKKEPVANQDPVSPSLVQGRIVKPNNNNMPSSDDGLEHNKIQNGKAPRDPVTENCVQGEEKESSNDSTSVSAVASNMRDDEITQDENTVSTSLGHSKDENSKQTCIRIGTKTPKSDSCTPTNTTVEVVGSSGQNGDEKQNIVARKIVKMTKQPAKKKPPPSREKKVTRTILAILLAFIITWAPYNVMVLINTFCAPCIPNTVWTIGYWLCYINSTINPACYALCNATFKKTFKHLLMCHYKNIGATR
Assay: Blockade of agonist-mediated inhibition of cAMP accumulation
Assay type: cell-based
Details: CHO-K1 cells expressing the hM2 receptor; read-out: Ki value for blockade of oxotremorine-inhibition of forskolin-mediated cAMP accumulation
Procedure: A. Blockade of Agonist-Mediated Inhibition of cAMP Accumulation
In this assay, the functional potency of a test compound was determined by measuring the ability of the test compound to block oxotremorine-inhibition of forskolin-mediated cAMP accumulation in CHO-K1 cells expressing the hM2 receptor.
cAMP assays were performed in a radioimmunoassay format using the Flashplate Adenylyl Cyclase Activation Assay System with ^125I-cAMP (NEN SMP004B, PerkinElmer Life Sciences Inc., Boston, Mass.), according to the manufacturer's instructions.
Cells were rinsed once with dPBS and lifted with Trypsin-EDTA solution (0.05% trypsin/0.53 mM EDTA) as described in the Cell Culture and Membrane Preparation section above. […] The cell pellet was then re-suspended in 10 mL dPBS, and the cells were counted with a Coulter Z1 Dual Particle Counter (Beckman Coulter, Fullerton, Calif.). […]
Reactions were incubated for 10 minutes at 37° C. and stopped by addition of 100 μL ice-cold detection buffer. Plates were sealed, incubated overnight at room temperature and counted the next morning on a PerkinElmer TopCount liquid scintillation counter (PerkinElmer Inc., Wellesley, Mass.). The amount of cAMP produced (pmol/well) was calculated based on the counts observed for the samples and cAMP standards, as described in the manufacturer's user manual. […]

CNCC(=O)NCCCCCN1CC[C@@H](C(C(N)=O)(c2ccccc2)c2ccccc2)C1 [Example 1]
Ki: < 100 nM
